Test results from patent EP1301480B1, “1,3-DISUBSTITUTED AND 1,3,3-TRISUBSTITUTED PYRROLIDINES AS HISTAMINE-3 RECEPTOR LIGANDS AND THEIR THERAPEUTIC APPLICATIONS” (ABBOTT LABORATORIES, priority 2000, dated 2002).

Each compound was assayed against T1, histamine-3 receptor (Rattus norvegicus, UniProt Q9QYN8) (assay: Histamine-3 receptor binding: displacement of (3H)-N-α-methylhistamine from rat cortical membranes). Conditions: (3H)-N-α-methylhistamine (~0.6 nM), 30 minutes at 25 °C, pH 7.7, Cheng-Prusoff equation.
T1 construct: from tissue; host or cells: male Sprague-Dawley rat brain cortex membranes
T1 sequence (Q9QYN8 whole entry): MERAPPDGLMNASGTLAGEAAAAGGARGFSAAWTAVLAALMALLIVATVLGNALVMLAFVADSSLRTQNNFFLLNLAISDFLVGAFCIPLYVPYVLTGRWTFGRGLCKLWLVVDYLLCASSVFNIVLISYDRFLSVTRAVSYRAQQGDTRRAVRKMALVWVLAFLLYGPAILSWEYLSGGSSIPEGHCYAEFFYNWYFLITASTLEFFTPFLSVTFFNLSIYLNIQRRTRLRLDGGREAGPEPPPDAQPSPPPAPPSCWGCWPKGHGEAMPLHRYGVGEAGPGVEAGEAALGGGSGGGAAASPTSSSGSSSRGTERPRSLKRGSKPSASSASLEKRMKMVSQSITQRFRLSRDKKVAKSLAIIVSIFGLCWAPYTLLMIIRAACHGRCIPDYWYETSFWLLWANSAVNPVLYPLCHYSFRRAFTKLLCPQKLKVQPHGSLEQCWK
Parameters: species or system male Sprague-Dawley rat
Experimental: Briefly, male Sprague-Dawley rat brain cortices were homogenized (1 g tissue/10 mL buffer) in 50 mM Tris-HCl/5 mM EDTA containing protease inhibitor cocktail (Calbiochem) using a polytron set at 20,500 rpm. Homogenates were centrifuged for 20 minutes at 40,000xg. The supernatant was decanted, and pellets were weighed. The pellet was resuspended by polytron homogenization in 40 mL 50 mM Tris-HCI/5 mM EDTA with protease inhibitors and centrifuged for 20 minutes at 40,000xg. […] Test compounds were dissolved in DMSO to provide a 20 mM solution, serially diluted and then added to the incubation mixtures prior to initiating the incubation assay by addition of the membranes. Thioperamide (3 µM) was used to determine nonspecific binding. Binding incubations were conducted for 30 minutes at 25 °C and terminated by addition of 2 mL of ice cold 50 mM Tris-HCl (pH 7.7) and filtration through 0.3% polyethylenimine-soaked Unifilter plates (Packard). These filters were washed 4 additional times with 2 mL of ice-cold 50 mM Tris-HCl and dried for 1 hour. Radioactivity was determined using liquid scintillation counting techniques. Results were analyzed by Hill transformation and Ki values were determined using the Cheng-Prusoff equation.
“1-(4-{3-[(3R)-3-aminopyrrolidinyl]propoxy}phenyl)-1-propanone [Example 7]” gave a Ki of 0.031 µM.
`CC(=O)c1ccc(OCCCN2CCC(N3C(=O)NC(C(C)C)C3=O)C2)cc1` [Example 10, (5R)-3-{(3R)-1-[3-(4-acetylphenoxy)propyl]pyrrolidinyl}-5-isopropyl-2,4-imidazolidinedione] was tested, and the Ki was 0.626 µM.
In the case of `CC(C)(C)OC(=O)NC1CCN(CCCOc2ccc(-c3ccc(C#N)cc3)cc2)C1` (centres unmarked) [Example 98, tert-butyl 1-{3-[(4'-cyano[1,1'-biphenyl]-4-yl)oxy]propyl}-3-pyrrolidinylcarbamate], the Ki is reported as 0.09 µM.
`CN(C)[C@@H]1CCN(CCCOc2ccc(-c3ccc(C#N)cc3)cc2)C1` [Example 108, 4'-{3-[(3R)-3-(dimethylamino)pyrrolidinyl]propoxy}[1,1'-biphenyl]-4-carbonitrile] showed a Ki of 0.012 µM.
With `O=C(c1ccc(OCCCN2CCC(O)C2)cc1)C1CC1` (centres unmarked) [Example 151, cyclopropyl{4-[3-(3-hydroxy-1-pyrrolidinyl)propoxy]phenyl}methanone] the Ki was 0.022 µM.
Compound `O=C(c1ccc(OCCCN2CC[C@@H](O)C2)cc1)C1CC1` [Example 152, cyclopropyl(4-{3-[(3R)-3-hydroxypyrrolidinyl]propoxy}phenyl)methanone] has a Ki of 0.0087 µM.
Compound `N#Cc1ccc(-c2ccc(OCCCN3CC[C@@H](O)C3)cc2)cc1` [Example 153, 4'-{3-[(3R)-3-hydroxypyrrolidinyl]propoxy}[1,1'-biphenyl]-4-carbonitrile] has a Ki of 0.042 µM.
For `N#Cc1ccc(-c2ccc(OCCCN3CCC(=O)C3)cc2)cc1` [Example 154, 4'-[3-(3-oxo-1-pyrrolidinyl)propoxy][1,1'-biphenyl]-4-carbonitrile], the Ki was 0.063 µM.
Compound `N#Cc1ccc(-c2ccc(OCCCN3CC[C@H](O)C3)cc2)cc1` [Example 155, 4'-{3-[(3S)-3-hydroxypyrrolidinyl]propoxy}[1,1'-biphenyl]-4-carbonitrile] has a Ki of 0.105 µM.
In the case of `CC1(O)CCN(CCCOc2ccc(-c3ccc(C#N)cc3)cc2)C1` (centres unmarked) [Example 156, 4'-[3-(3-hydroxy-3-methyl-1-pyrrolidinyl)propoxy][1,1'-biphenyl]-4-carbonitrile], the Ki is reported as 0.045 µM.
Compound `CC(C)C1(O)CCN(CCCOc2ccc(-c3ccc(C#N)cc3)cc2)C1` (centres unmarked) [Example 157] has a Ki of 0.593 µM.
In the case of `C[C@@]1(O)CCN(CCCOc2ccc(-c3ccc(C#N)cc3)cc2)C1` [Example 158, 4'-{3-[(3R)-3-hydroxy-3-methylpyrrolidinyl]propoxy}[1,1'-biphenyl]-4-carbonitrile], the Ki is reported as 0.015 µM.
Work on “N-((3R)-1-{3-[4-(cyclopropylcarbonyl)phenoxy]propyl}pyrrolidinyl)-4-isopropylbenzenesulfonamide [Example 67]” yielded a Ki of 0.0029 µM.
“N-{(3R)-1-[3-(4-acetylphenoxy)propyl]pyrrolidinyl}-4-(trifluoromethoxy)benzenesulfonamide [Example 73]” showed a Ki of 0.0064 µM.
